Source: patent US20180370927A1, “MICROBIOCIDAL OXADIAZOLE DERIVATIVES” (SYNGENTA PARTICIPATIONS AG, priority 2015, published 2018)

Assays:
[1] = system: Puccinia recondita f. Sp. Tritici; assay: Puccinia recondita f. sp. tritici / wheat / leaf disc preventative (brown rust); format: in vivo; settings: foliar, 200 ppm in the applied formulation, wheat leaf segments, preventative, assessed 7 to 9 days after application, read-out: disease control compared to untreated control leaf disks
Outline: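 Wheat cv. Kanzler leaf segments on agar sprayed with formulated compound in water, inoculated with rust spores 1 day later. Incubated at 19° C, 75% rh, 12 h light/12 h dark; percent disease control versus untreated scored 7 to 9 days after application; tested at 200 ppm.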

Phakopsora pachyrhizi = Phakopsora pachyrhizi / soybean / leaf disc preventative (Asian soybean rust); format: in vivo; settings: foliar, 200 ppm in the applied formulation, soybean leaf disks, assessed 12 to 14 days after application, read-out: disease control compared to untreated control leaf disks
Method: Leaf disks or leaf segments of various plant species are cut from plants grown in a greenhouse. The cut leaf disks or segments are placed in multiwell plates (24-well format) onto water agar. The leaf disks are sprayed with a test solution before (preventative) or after (curative) inoculation. Compounds to be tested are prepared as DMSO solutions (max. 10 mg/mL) which are diluted to the appropriate concentration with 0.025% Tween20 just before spraying. The inoculated leaf disks or segments are incubated under defined conditions (temperature, relative humidity, light, etc.) according to the respective test system. A single evaluation of disease level is carried out 3 to 14 days after inoculation, depending on the pathosystem. Percent disease control relative to the untreated check leaf disks or segments is then calculated.
Example 3: Fungicidal Activity Against Phakopsora pachyrhizi/Soybean/Leaf Disc Preventative (Asian Soybean Rust)
Soybean leaf disks are placed on water agar in multiwell plates (24-well format) and sprayed with the formulated test compound diluted in water. One day after application leaf discs are inoculated by spraying a spore suspension on the lower leaf surface. After an incubation period in a climate cabinet of 24-36 hours in darkness at 20° C. and 75% relative humidity leaf disc are kept at 20° C. with 12 hours light/day and 75% relative humidity. The activity of a compound is assessed as percent disease control compared to untreated when an appropriate level of disease damage appears in untreated check leaf disks (12 to 14 days after application).
The following compounds at 200 ppm in the applied formulation give at least 80% disease control in this test when compared to untreated control leaf disks under the same conditions, which show extensive disease development.

[2] = system: Glomerella lacenarium (Colletotrichum lacenarium); assay: Glomerella lacenarium (Colletotrichum lacenarium) liquid culture / cucumber / preventative (anthracnose); format: cell-based; settings: 20 ppm in the applied formulation, liquid culture in PDB, 24° C., 3 to 4 days after application, read-out: disease control (inhibition of growth, photometric) compared to untreated control
Outline: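 Cryostored conidia in potato dextrose broth added to DMSO compound solution in microtiter plates, incubated at 24° C. Growth inhibition read photometrically 3 to 4 days after application, as percent control versus untreated check; compounds tested at 20 ppm.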

[3] = system: Puccinia recondita f. Sp. Tritici; assay: Puccinia recondita f. sp. tritici / wheat / leaf disc curative (brown rust); format: in vivo; settings: foliar, 200 ppm in the applied formulation, wheat leaf segments, curative (applied 1 day after inoculation), assessed 6 to 8 days after application, read-out: disease control compared to untreated control leaf disks
Outline: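 Wheat cv. Kanzler leaf segments on agar were inoculated with spores, kept dark at 19° C, 75% RH, then sprayed with diluted formulated compound 1 day after inoculation (curative). Incubation continued at 19° C, 75% RH, 12 h light/12 h dark, with percent disease control versus untreated scored 6 to 8 days after application.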

CCN(Cc1ccc(-c2noc(C(F)(F)F)n2)cc1)C(=O)C(=O)C1CC1 [Compound 1.93, 2-cyclopropyl-N-ethyl-2-oxo-N-[[4-[5-(trifluoromethyl)-1,2,4-oxadiazol-3-yl]phenyl]methyl]acetamide]
≥ 80%: pest or weed control at 200 ppm [1] | pest or weed control at 200 ppm (Phakopsora pachyrhizi) | inhibition at 20 ppm [2] | pest or weed control at 200 ppm [3]

CON(Cc1ccc(-c2noc(C(F)(F)F)n2)cc1F)C(=O)C(=O)CC(C)C [Compound 1.55, N-[[2-fluoro-4-[5-(trifluoromethyl)-1,2,4-oxadiazol-3-yl]phenyl]methyl]-N-methoxy-4-methyl-2-oxo-pentanamide]
≥ 80%: pest or weed control at 200 ppm [1] | pest or weed control at 200 ppm (Phakopsora pachyrhizi) | inhibition at 20 ppm [2] | pest or weed control at 200 ppm [3]

CCN(CC)C(=O)C(=O)NCc1ccc(-c2noc(C(F)(F)F)n2)cc1 [Compound 4.52, N′,N′-diethyl-N-[[4-[5-(trifluoromethyl)-1,2,4-oxadiazol-3-yl]phenyl]methyl] oxamide]
≥ 80%: pest or weed control at 200 ppm [1] | pest or weed control at 200 ppm (Phakopsora pachyrhizi) | inhibition at 20 ppm [2] | pest or weed control at 200 ppm [3]

CCN(Cc1ccc(-c2noc(C(F)(F)F)n2)cc1)C(=O)C(C)=O [Compound 1.18, N-ethyl-2-oxo-N-[[4-[5-(trifluoromethyl)-1,2,4-oxadiazol-3-yl]phenyl]methyl]propanamide]
≥ 80%: pest or weed control at 200 ppm [1] | pest or weed control at 200 ppm (Phakopsora pachyrhizi) | inhibition at 20 ppm [2] | pest or weed control at 200 ppm [3]

CON(Cc1ccc(-c2noc(C(F)(F)F)n2)cc1F)C(=O)C(=O)c1ccco1 [Compound 1.83, N-[[2-fluoro-4-[5-(trifluoromethyl)-1,2,4-oxadiazol-3-yl]phenyl]methyl]-2-(2-furyl)-N-methoxy-2-oxo-acetamide]
≥ 80%: pest or weed control at 200 ppm [1] | pest or weed control at 200 ppm (Phakopsora pachyrhizi) | inhibition at 20 ppm [2] | pest or weed control at 200 ppm [3]

CCON=C(C)C(=O)N(Cc1ccc(-c2noc(C(F)(F)F)n2)cc1)OC [Compound 2.12, 2-ethoxyimino-N-methoxy-N-[[4-[5-(trifluoromethyl)-1,2,4-oxadiazol-3-yl]phenyl]methyl] propanamide]
≥ 80%: pest or weed control at 200 ppm [1] | pest or weed control at 200 ppm (Phakopsora pachyrhizi) | inhibition at 20 ppm [2] | pest or weed control at 200 ppm [3]

CON(C)C(=O)C(=O)N(Cc1ccc(-c2noc(C(F)(F)F)n2)cc1)OC [Compound 4.65, N,N′-dimethoxy-N-methyl-N′-[[4-[5-(trifluoromethyl)-1,2,4-oxadiazol-3-yl]phenyl]methyl] oxamide]
≥ 80%: pest or weed control at 200 ppm [1] | pest or weed control at 200 ppm (Phakopsora pachyrhizi) | inhibition at 20 ppm [2] | pest or weed control at 200 ppm [3]

CON(Cc1ccc(-c2noc(C(F)(F)F)n2)cc1)C(=O)C(=O)C(C)(C)C [Compound 1.74, N-methoxy-3,3-dimethyl-2-oxo-N-[[4-[5-(trifluoromethyl)-1,2,4-oxadiazol-3-yl]phenyl]methyl]butanamide]
≥ 80%: pest or weed control at 200 ppm [1] | pest or weed control at 200 ppm (Phakopsora pachyrhizi) | inhibition at 20 ppm [2] | pest or weed control at 200 ppm [3]

CCC(=O)C(=O)N(CC)Cc1ccc(-c2noc(C(F)(F)F)n2)cc1 [Compound 1.99, N-ethyl-2-oxo-N-[[4-[5-(trifluoromethyl)-1,2,4-oxadiazol-3-yl]phenyl]methyl]butanamide]
≥ 80%: pest or weed control at 200 ppm [1] | pest or weed control at 200 ppm (Phakopsora pachyrhizi) | inhibition at 20 ppm [2] | pest or weed control at 200 ppm [3]

CC(C)C(=O)C(=O)N(C)Cc1ccc(-c2noc(C(F)(F)F)n2)cc1 [Compound 1.95, N,3-dimethyl-2-oxo-N-[[4-[5-(trifluoromethyl)-1,2,4-oxadiazol-3-yl]phenyl]methyl]butanamide]
≥ 80%: pest or weed control at 200 ppm [1] | pest or weed control at 200 ppm (Phakopsora pachyrhizi) | inhibition at 20 ppm [2] | pest or weed control at 200 ppm [3]

O=C(NCc1ccc(-c2noc(C(F)(F)F)n2)c(F)c1)C(=O)c1cccs1 [Compound 1.44, N-[[3-fluoro-4-[5-(trifluoromethyl)-1,2,4-oxadiazol-3-yl]phenyl]methyl]-2-oxo-2-(2-thienyl)acetamide]
≥ 80%: pest or weed control at 200 ppm [1] | pest or weed control at 200 ppm (Phakopsora pachyrhizi) | inhibition at 20 ppm [2] | pest or weed control at 200 ppm [3]

CO/N=C(/C)C(=O)N(Cc1ccc(-c2noc(C(F)(F)F)n2)cc1)OC [Compound 2.11, (2Z)-N-methoxy-2-methoxyimino-N-[[4-[5-(trifluoromethyl)-1,2,4-oxadiazol-3-yl]phenyl]methyl] propanamide]
≥ 80%: pest or weed control at 200 ppm [1] | pest or weed control at 200 ppm (Phakopsora pachyrhizi) | inhibition at 20 ppm [2] | pest or weed control at 200 ppm [3]

CN(C(=O)C(=O)NCc1ccc(-c2noc(C(F)(F)F)n2)cc1)C1CCOC1 (stereo not drawn) [Compound 4.41, N′-methyl-N′-tetrahydrofuran-3-yl-N-[[4-[5-(trifluoromethyl)-1,2,4-oxadiazol-3-yl]phenyl]methyl] oxamide]
≥ 80%: pest or weed control at 200 ppm [1] | pest or weed control at 200 ppm (Phakopsora pachyrhizi) | inhibition at 20 ppm [2] | pest or weed control at 200 ppm [3]

CCCC(=O)C(=O)N(Cc1ccc(-c2noc(C(F)(F)F)n2)cc1)C1CC1 [Compound 1.4, N-cyclopropyl-2-oxo-N-[[4-[5-(trifluoromethyl)-1,2,4-oxadiazol-3-yl]phenyl]methyl]pentanamide]
≥ 80%: pest or weed control at 200 ppm [1] | pest or weed control at 200 ppm (Phakopsora pachyrhizi) | inhibition at 20 ppm [2] | pest or weed control at 200 ppm [3]

O=C(NCc1ccc(-c2noc(C(F)(F)F)n2)cc1F)C(=O)c1cccs1 [Compound 1.39, N-[[2-fluoro-4-[5-(trifluoromethyl)-1,2,4-oxadiazol-3-yl]phenyl]methyl]-2-oxo-2-(2-thienyl)acetamide]
≥ 80%: pest or weed control at 200 ppm [1] | pest or weed control at 200 ppm (Phakopsora pachyrhizi) | inhibition at 20 ppm [2] | pest or weed control at 200 ppm [3]

CCONC(=O)C(=O)NCc1ccc(-c2noc(C(F)(F)F)n2)cc1 [Compound 4.55, N′-ethoxy-N-[[4-[5-(trifluoromethyl)-1,2,4-oxadiazol-3-yl]phenyl]methyl] oxamide]
≥ 80%: pest or weed control at 200 ppm [1] | pest or weed control at 200 ppm (Phakopsora pachyrhizi) | inhibition at 20 ppm [2] | pest or weed control at 200 ppm [3]

CCC(=O)C(=O)N(Cc1ccc(-c2noc(C(F)(F)F)n2)cc1F)OC [Compound 1.58, N-[[2-fluoro-4-[5-(trifluoromethyl)-1,2,4-oxadiazol-3-yl]phenyl]methyl]-N-methoxy-2-oxo-butanamide]
≥ 80%: pest or weed control at 200 ppm [1] | pest or weed control at 200 ppm (Phakopsora pachyrhizi) | inhibition at 20 ppm [2] | pest or weed control at 200 ppm [3]

CCON(Cc1ccc(-c2noc(C(F)(F)F)n2)cc1)C(=O)C(N)=O [Compound 4.86, N′-ethoxy-N′-[[4-[5-(trifluoromethyl)-1,2,4-oxadiazol-3-yl]phenyl]methyl] oxarnide]
≥ 80%: pest or weed control at 200 ppm [1] | pest or weed control at 200 ppm (Phakopsora pachyrhizi) | inhibition at 20 ppm [2] | pest or weed control at 200 ppm [3]
